In brackets after ≈: the same amount, converted by molar mass. Where two headings read alike, the source gives them in different places.
How the values were obtained:
[1] = test system: carbapenem sensitive Pseudomonas aeruginosa; assay: MIC by broth micro-dilution (CLSI), carbapenem sensitive P. aeruginosa; assay type: cell-based
[2] = test system: carbapenem sensitive Escherichia coli; assay: MIC by broth micro-dilution (CLSI), carbapenem sensitive E. coli; assay type: cell-based
[3] = test system: carbapenemase producing K. pneumoniae; assay: MIC by broth micro-dilution (CLSI), carbapenemase producing K. pneumoniae; assay type: cell-based, Klebsiella pneumoniae
[4] = test system: methicillin-sensitive Staphylococcus aureus; assay: MIC by broth micro-dilution (CLSI), methicillin-sensitive S. aureus; assay type: cell-based; conditions: MSSA S. aureus ATCC29213
[5] = Pseudomonas aeruginosa, ATCC27853, Meropenem susceptible P. aeruginosa ATCC27853, read-out: MIC
[6] = Escherichia coli, ATCC25922, ESBL −ve E. coli ATCC25922, read-out: MIC
[7] = Klebsiella pneumoniae, ATCCBAA1705, KPC-2 K. pneumoniae ATCC BAA-1705, read-out: MIC
[8] = Staphylococcus aureus, ATCC 29213 / MSSA, read-out: MIC
[9] = Meropenem susceptible P. aeruginosa ATCC27853
[10] = KPC-2 K. pneumoniae ATCC BAA-1705

SMILES	MIC [1, 5]	MIC [2, 6]	MIC [3, 7]	MIC [4, 8]	MIC [1, 9]	MIC ([2]; ESBL −ve E. coli ATCC25922)	MIC [3, 10]	MIC [4]
C[C@H]([C@H]1C(=O)N2C(C(=O)O)=C(S[C@@H]3CN[C@H](C(=O)N(C)C)C3)[C@H](C)[C@H]12)n1ncnn1 [Example 313, (4R,5S,6S)-6-((R) - 1-(2H-tetrazol-2-yl)ethyl)-3-((3S,5S)-5-(dimethylcarbamoyl)pyrrolidin-3-ylthio)-4-methyl-7-oxo-1-azabicyclo[3.2.0]hept-2-ene-2-carboxylic acid]	> 128 µg/mL	1 µg/mL (≈ 2.3 µM)	16 µg/mL (≈ 36.7 µM)	4 µg/mL (≈ 9.18 µM)				
CNCC(=O)N[C@H](C)[C@H]1C(=O)N2C(C(=O)O)=C(SC3CN(C4=NCCS4)C3)[C@H](C)[C@H]12 [Example 256]	32 µg/mL (≈ 70.5 µM)	1 µg/mL (≈ 2.2 µM)	2 µg/mL (≈ 4.41 µM)	4 µg/mL (≈ 8.82 µM)				
C[C@@H](NC(=O)Cn1cnnn1)[C@H]1C(=O)N2C(C(=O)O)=C(S[C@@H]3CN[C@H](C(=O)N4CCC(CCN)CC4)C3)[C@H](C)[C@H]12 [Example 480]	2 µg/mL (≈ 3.47 µM)	0.25 µg/mL (≈ 0.434 µM)	1 µg/mL (≈ 1.74 µM)	2 µg/mL (≈ 3.47 µM)				
C[C@@H](NC(=O)Cn1cnnn1)[C@H]1C(=O)N2C(C(=O)O)=C(S[C@@H]3CN[C@H](C(=O)N4C[C@@H]5CNC[C@]5(CO)C4)C3)[C@H](C)[C@H]12 [Example 525, (4R,5S,6R)-6-((R)-1-(2-(1H-tetrazol-1-yl)acetamido)ethyl)-3-((3S,5S)-5-((3aS,6aS)-3a-(hydroxymethyl)octahydropyrrolo[3,4-c]pyrrole-2-carbonyl)pyrrolidin-3-ylthio)-4-methyl-7-oxo-1-azabicyclo[3.2.0]hept-2-ene-2-carboxylic acid]	0.5 µg/mL (≈ 0.848 µM)	0.25 µg/mL (≈ 0.424 µM)	2 µg/mL (≈ 3.39 µM)	4 µg/mL (≈ 6.78 µM)				
C[C@@H](NC(=O)Cn1cnnn1)[C@H]1C(=O)N2C(C(=O)O)=C(S[C@@H]3CN[C@H](C(=O)N4C[C@H](N)[C@H](NC(=N)N)C4)C3)[C@H](C)[C@H]12 [Example 565, (4R,5S,6R)-6-((R)-1-(2-(1H-tetrazol-1-yl)acetamido)ethyl)-3-((3S,5S)-5-((3S,4R)-3-amino-4-guanidinopyrrolidine-1-carbonyl)-pyrrolidin-3-ylthio)-4-methyl-7-oxo-1-azabicyclo[3.2.0]hept-2-ene-2-carboxylic acid]	1 µg/mL (≈ 1.69 µM)	0.25 µg/mL (≈ 0.423 µM)	2 µg/mL (≈ 3.39 µM)	2 µg/mL (≈ 3.39 µM)				
C[C@@H](NC(=O)Cn1nnnc1N(C)C)[C@H]1C(=O)N2C(C(=O)O)=C(S[C@@H]3CN[C@H](C(=O)N(C)C)C3)[C@H](C)[C@H]12 [Example 383, (4R,5S,6R)-6-((R)-1-(2-(5-(dimethylamino)-1H-tetrazol-1-yl)acetamido)ethyl)-3-((3S,5S)-5-(dimethylcarbamoyl)pyrrolidin-3-ylthio)-4-methyl-7-oxo-1-azabicyclo[3.2.0]hept-2-ene-2-carboxylic acid]	> 128 µg/mL	0.25 µg/mL (≈ 0.467 µM)	4 µg/mL (≈ 7.47 µM)	4 µg/mL (≈ 7.47 µM)				
CO[C@H]1CN(C(=O)[C@@H]2C[C@H](SC3=C(C(=O)O)N4C(=O)[C@H]([C@@H](C)NC(=O)Cn5cnnn5)[C@H]4[C@H]3C)CN2)C[C@@H]1N [Example 494, (4R,5S,6R)-6-((R)-1-(2-(1H-tetrazol-1-yl)acetamido)ethyl)-3-((3S,5S)-5-((3S,4S)-3-amino-4-methoxypyrrolidine-1-carbonyl)pyrrolidin-3-ylthio)-4-methyl-7-oxo-1-azabicyclo[3.2.0]hept-2-ene-2-carboxylic acid]	16 µg/mL (≈ 28.4 µM)	0.25 µg/mL (≈ 0.444 µM)	4 µg/mL (≈ 7.1 µM)	8 µg/mL (≈ 14.2 µM)				
C[C@@H](NC(=O)Cn1cnnn1)[C@H]1C(=O)N2C(C(=O)O)=C(S[C@@H]3CN[C@H](C(=O)N4C[C@@H](O)[C@H](N)[C@H]4CO)C3)[C@H](C)[C@H]12 [Example 548, (4R,5S,6R)-6-((R)-1-(2-(1H-tetrazol-1-yl)acetamido)ethyl)-3-((3S,5S)-5-((2S,3R,4R)-3-amino-4-hydroxy-2-(hydroxymethyl)pyrrolidine-1-carbonyl)pyrrolidin-3-ylthio)-4-methyl-7-oxo-1-azabicyclo[3.2.0]hept-2-ene-2-carboxylic acid]	4 µg/mL (≈ 6.9 µM)	0.25 µg/mL (≈ 0.431 µM)	1 µg/mL (≈ 1.73 µM)	8 µg/mL (≈ 13.8 µM)				
C[C@@H](NC(=O)Cn1cnnn1)[C@H]1C(=O)N2C(C(=O)O)=C(S[C@@H]3CN[C@H](C(=O)N4CC5CC(N)CC5C4)C3)[C@H](C)[C@H]12 (stereo partly drawn) [Example 543, (4R,5S,6R)-6-((R)-1-(2-(1H-tetrazol-1-yl)acetamido)ethyl)-3-((3S,5S)-5-(5-aminooctahydrocyclopenta[c]pyrrole-2-carbonyl)pyrrolidin-3-ylthio)-4-methyl-7-oxo-1-azabicyclo[3.2.0]hept-2-ene-2-carboxylic acid]	2 µg/mL (≈ 3.49 µM)	0.5 µg/mL (≈ 0.872 µM)	1 µg/mL (≈ 1.74 µM)	2 µg/mL (≈ 3.49 µM)				
C[C@@H](NC(=O)C(F)F)[C@H]1C(=O)N2C(C(=O)O)=C(S[C@@H]3CN[C@H](CNC(=O)[C@H]4CC[C@@H](N)C4)C3)[C@H](C)[C@H]12 [Example 258]	128 µg/mL (≈ 242 µM)	4 µg/mL (≈ 7.55 µM)	16 µg/mL (≈ 30.2 µM)	1 µg/mL (≈ 1.89 µM)				
C[C@@H](NC(=O)Cn1nnnc1C(F)(F)F)[C@H]1C(=O)N2C(C(=O)O)=C(S[C@@H]3CN[C@H](C(=O)N(C)C)C3)[C@H](C)[C@H]12 [Example 348, (4R,5S,6R)-3-((3S,5S)-5-(dimethylcarbamoyl)pyrrolidin-3-ylthio)-4-methyl-7-oxo-6-((R)-1-(2-(5-(trifluoromethyl)-1H-tetrazol-1-yl)acetamido)ethyl)-1-azabicyclo[3.2.0]hept-2-ene-2-carboxylic acid]	> 128 µg/mL	1 µg/mL (≈ 1.78 µM)	16 µg/mL (≈ 28.5 µM)	8 µg/mL (≈ 14.3 µM)				
C[C@@H](NC(=O)C(F)F)[C@H]1C(=O)N2C(C(=O)O)=C(S[C@@H]3CN[C@@H](C(=O)N(C)C)C3)[C@H](C)[C@H]12 [Example 248]	> 128 µg/mL	1 µg/mL (≈ 2.17 µM)	4 µg/mL (≈ 8.69 µM)	1 µg/mL (≈ 2.17 µM)				
C[C@@H](NC(=O)Cn1cnnn1)[C@H]1C(=O)N2C(C(=O)O)=C(S[C@@H]3CN[C@H](C(=O)N4CCC5CNCC5C4)C3)[C@H](C)[C@H]12 (single isomer, unassigned) [Example 534]					1 µg/mL (≈ 1.74 µM)	0.125 µg/mL (≈ 0.218 µM)	1 µg/mL (≈ 1.74 µM)	2 µg/mL (≈ 3.49 µM)
C[C@@H](NC(=O)Cn1cnnn1)[C@H]1C(=O)N2C(C(=O)O)=C(S[C@@H]3CN[C@H](C(=O)N4CCC5(CCNCC5)C4)C3)[C@H](C)[C@H]12 [Example 499, (4R,5S,6R)-6-((R)-1-(2-(1H-tetrazol-1-yl)acetamido)ethyl)-3-((3S,5S)-5-(2,8-diazaspiro[4.5]decane-2-carbonyl)pyrrolidin-3-ylthio)-4-methyl-7-oxo-1-azabicyclo[3.2.0]hept-2-ene-2-carboxylic acid]	1 µg/mL (≈ 1.7 µM)	0.25 µg/mL (≈ 0.425 µM)	1 µg/mL (≈ 1.7 µM)	2 µg/mL (≈ 3.4 µM)				
C[C@@H](NC(=O)Cn1cnnn1)[C@H]1C(=O)N2C(C(=O)O)=C(S[C@@H]3CN[C@H](C(=O)N4CCO[C@H](CN)C4)C3)[C@H](C)[C@H]12 [Example 460, (4R,5S,5R)-6-((R)-1-(2-(1H-tetrazol-1-yl)acetamido)ethyl)-3-((3S,5S)-5-((R)-2-(aminomethyl)morpholine-4-carbonyl)pyrrolidin-3-ylthio)-4-methyl-7-oxo-1-azabicyclo[3.2.0]hept-2-ene-2-carboxylic acid]	4 µg/mL (≈ 7.1 µM)	0.5 µg/mL (≈ 0.887 µM)	2 µg/mL (≈ 3.55 µM)	4 µg/mL (≈ 7.1 µM)				
C[C@@H](NC(=O)Cn1cnnn1)[C@H]1C(=O)N2C(C(=O)O)=C(S[C@@H]3CN[C@H](C(=O)N4C[C@@H](N)[C@H](O)C4)C3)[C@H](C)[C@H]12 [Example 329, (4R,5S,6R)-6-((R) - 1-(2-(1H-tetrazol-1-yl)acetamido)ethyl)-3-((3S,5S)-5-((3R,4R)-3-amino-4-hydroxypyrrolidine-1-carbonyl)pyrrolidin-3-ylthio)-4-methyl-7-oxo-1-azabicyclo[3.2.0]hept-2-ene-2-carboxylic acid]	8 µg/mL (≈ 14.6 µM)	0.25 µg/mL (≈ 0.455 µM)	2 µg/mL (≈ 3.64 µM)	8 µg/mL (≈ 14.6 µM)				
C[C@@H](NC(=O)[C@@H]1CSCN1)[C@H]1C(=O)N2C(C(=O)O)=C(S[C@@H]3CN[C@H](C(=O)N(C)C)C3)[C@H](C)[C@H]12 [Example 270]	64 µg/mL (≈ 129 µM)	1 µg/mL (≈ 2.01 µM)	4 µg/mL (≈ 8.04 µM)	4 µg/mL (≈ 8.04 µM)				
C[C@@H](NC(=O)C(F)F)[C@H]1C(=O)N2C(C(=O)O)=C(S[C@@H]3CN[C@H](C(=O)N4CC[C@H](NCc5cc(=O)c(O)cn5C)C4)C3)[C@H](C)[C@H]12 [Example 246]	> 128 µg/mL	8 µg/mL (≈ 12.5 µM)	128 µg/mL (≈ 200 µM)	32 µg/mL (≈ 50.1 µM)				
C[C@@H](NC(=O)Cn1cnnn1)[C@H]1C(=O)N2C(C(=O)O)=C(S[C@@H]3CN[C@H](C(=O)N4CCC5NCCCC5C4)C3)[C@H](C)[C@H]12 (stereo partly drawn) [Example 487, (4R,5S,6R)-6-((R)-1-(2-(1H-tetrazol-1-yl)acetamidin)ethyl)-3-((3S,5S)-5-(decahydro-1,6-naphthyridine-6-carbonyl)pyrrolidin-3-ylthio)-4-methyl-7-oxo-1-azabicyclo[3.2.0]hept-2-ene-2-carboxylic acid]					8 µg/mL (≈ 13.6 µM)	0.25 µg/mL (≈ 0.425 µM)	1 µg/mL (≈ 1.7 µM)	2 µg/mL (≈ 3.4 µM)
C[C@@H](NC(=O)Cn1cnnn1)[C@H]1C(=O)N2C(C(=O)[O-])=C(Sc3cnn(CC4CC[N+](C)(CCN)CC4)c3)[C@H](C)[C@H]12 (stereo partly drawn) [Example 594, (4R,5S,6R)-6-((R)-1-(2-(1H-tetrazol-1-yl)acetamido)ethyl)-3-(1-((1-(2-aminoethyl)-1-methylpiperidinium-4-yl)methyl)-1H-pyrazol-4-ylthio)-4-methyl-7-oxo-1-azabicyclo[3.2.0]hept-2-ene-2-carboxylate]	> 128 µg/mL	32 µg/mL (≈ 55.9 µM)	> 128 µg/mL	1 µg/mL (≈ 1.75 µM)				

Reference: US11180504B2 (ORCHID PHARMA LTD., priority 2016, dated 2021)
